In ChEMBL document CHEMBL5113418, “Discovery of precision targeting EZH2 degraders for triple-negative breast cancer” (Eur J Med Chem, 2022):
One block for each compound: values may come before it.

How the values were obtained:
[1] = tested on: MDA-MB-468; assay: Antiproliferative activity against human MDA-MB-468 cells assessed as cell growth inhibition incubated for 72 hrs by MTT assay; type: functional, cell-based; conditions: MDA-MB-468, 72 h
[2] = tested on: MDA-MB-231; assay: Antiproliferative activity against human MDA-MB-231 cells assessed as cell growth inhibition incubated for 72 hrs by MTT assay; type: functional, cell-based; conditions: MDA-MB-231, 72 h

Compound: Cc1cc(C)c(CNC(=O)c2cc(-c3ccc(N4CCN(C(=O)CCCc5cn(CCOCCOCCOCCOCCOCCNc6cccc7c6C(=O)N(C6CCC(=O)NC6=O)C7=O)nn5)CC4)nc3)cc3c2cnn3C(C)C)c(=O)[nH]1 (configuration not stated)
IC50 [1]: 33.6 µM
IC50 [2]: > 40 µM

Compound: CCN(c1cc(-c2ccc(N3CCN(C(=O)CCCCCCCCc4cn(CCOCCOCCOCCOCCOCCNc5cccc6c5C(=O)N(C5CCC(=O)NC5=O)C6=O)nn4)CC3)nc2)cc(C(=O)NCc2c(C)cc(C)[nH]c2=O)c1C)C1CCOCC1 (configuration not stated)
IC50 [1]: 0.7 µM
IC50 [2]: 1.09 µM

Compound: CCN(c1cc(-c2ccc(N3CCN(C(=O)CCCCCCCCc4cn(CCOCCOCCOCCOCCNc5cccc6c5C(=O)N(C5CCC(=O)NC5=O)C6=O)nn4)CC3)nc2)cc(C(=O)NCc2c(C)cc(C)[nH]c2=O)c1C)C1CCOCC1 (configuration not stated)
IC50 [1]: 4.02 µM
IC50 [2]: 21.8 µM

Compound: Cc1cc(C)c(CNC(=O)c2cc(-c3ccc(N4CCN(C(=O)CCCCCCCCc5cn(CCOCCOCCNc6cccc7c6C(=O)N(C6CCC(=O)NC6=O)C7=O)nn5)CC4)nc3)cc3c2cnn3C(C)C)c(=O)[nH]1 (configuration not stated)
IC50 [1]: > 40 µM
IC50 [2]: > 40 µM

Compound: Cc1cc(C)c(CNC(=O)c2cc(-c3ccc(N4CCN(C(=O)CCCCCc5cn(CCOCCOCCOCCOCCOCCNc6cccc7c6C(=O)N(C6CCC(=O)NC6=O)C7=O)nn5)CC4)nc3)cc3c2cnn3C(C)C)c(=O)[nH]1 (configuration not stated)
IC50 [1]: 10.7 µM
IC50 [2]: 16.1 µM

Compound: Cc1cc(C)c(CNC(=O)c2cc(-c3ccc(N4CCN(CCCCc5cn(CCOCCOCCOCCOCCOCCNc6cccc7c6C(=O)N(C6CCC(=O)NC6=O)C7=O)nn5)CC4)nc3)cc3c2cnn3C(C)C)c(=O)[nH]1 (configuration not stated)
IC50 [1]: 2.86 µM
IC50 [2]: 5.05 µM

Compound: Cc1cc(C)c(CNC(=O)c2cc(-c3ccc(N4CCN(C(=O)CCCCCCC(=O)N[C@H](C(=O)N5C[C@H](O)C[C@H]5C(=O)NCc5ccc(-c6scnc6C)cc5)C(C)(C)C)CC4)nc3)cc3c2cnn3C(C)C)c(=O)[nH]1
IC50 [1]: 8.24 µM
IC50 [2]: 25.2 µM

Compound: Cc1cc(C)c(CNC(=O)c2cc(-c3ccc(N4CCN(C(=O)CCCCCn5cc(CCCCCCCCC(=O)N[C@@H](C(=O)N6C[C@H](O)C[C@H]6C(=O)NCc6ccc(-c7scnc7C)cc6)C(C)(C)C)nn5)CC4)nc3)cc3c2cnn3C(C)C)c(=O)[nH]1
IC50 [1]: 7.63 µM
IC50 [2]: 16.4 µM

Compound: Cc1cc(C)c(CNC(=O)c2cc(-c3ccc(N4CCN(C(=O)CCCCCCCCc5cn(CCOCCOCCOCCOCCOCCNc6cccc7c6C(=O)N(C6CCC(=O)NC6=O)C7=O)nn5)CC4)nc3)cc3c2cnn3C(C)C)c(=O)[nH]1 (configuration not stated)
IC50 [1]: 0.89 µM
IC50 [2]: 1.21 µM

Compound: Cc1cc(C)c(CNC(=O)c2cc(-c3ccc(N4CCN(C(=O)Cn5cc(CCCC(=O)N[C@@H](C(=O)N6C[C@H](O)C[C@H]6C(=O)NCc6ccc(-c7scnc7C)cc6)C(C)(C)C)nn5)CC4)nc3)cc3c2cnn3C(C)C)c(=O)[nH]1
IC50 [1]: > 40 µM
IC50 [2]: > 40 µM

Continued, values first:

IC50 [1]: 23.2 µM
IC50 [2]: > 40 µM
Compound: Cc1cc(C)c(CNC(=O)c2cc(-c3ccc(N4CCN(C(=O)CCCCCCCCc5cn(CCOCCOCCOCCNc6cccc7c6C(=O)N(C6CCC(=O)NC6=O)C7=O)nn5)CC4)nc3)cc3c2cnn3C(C)C)c(=O)[nH]1 (configuration not stated)

IC50 [1]: 1.14 µM
IC50 [2]: 1.7 µM
Compound: Cc1cc(C)c(CNC(=O)c2cc(-c3ccc(N4CCN(CCCCCCc5cn(CCOCCOCCOCCOCCOCCNc6cccc7c6C(=O)N(C6CCC(=O)NC6=O)C7=O)nn5)CC4)nc3)cc3c2cnn3C(C)C)c(=O)[nH]1 (configuration not stated)

IC50 [1]: 3.41 µM
IC50 [2]: > 40 µM
Compound: Cc1cc(C)c(CNC(=O)c2cc(-c3ccc(N4CCN(CCNC(=O)CC56CC7CC(CC(C7)C5)C6)CC4)nc3)cc3c2cnn3C(C)C)c(=O)[nH]1

IC50 [1]: > 40 µM
IC50 [2]: > 40 µM
Compound: Cc1cc(C)c(CNC(=O)c2cc(-c3ccc(N4CCN(C(=O)Cn5cc(CCCCC(=O)N[C@@H](C(=O)N6C[C@H](O)C[C@H]6C(=O)NCc6ccc(-c7scnc7C)cc6)C(C)(C)C)nn5)CC4)nc3)cc3c2cnn3C(C)C)c(=O)[nH]1

IC50 [1]: 4.21 µM
IC50 [2]: 24.4 µM
Compound: CC[C@H](C)n1cc(C)c2c(C(=O)NCc3c(C)cc(C)[nH]c3=O)cc(-c3ccc(N4CCN(C(=O)CCCCCCCCc5cn(CCOCCOCCOCCOCCNc6cccc7c6C(=O)N(C6CCC(=O)NC6=O)C7=O)nn5)CC4)nc3)cc21 (some centres not stated)

IC50 [1]: 22.3 µM
IC50 [2]: 30.3 µM
Compound: Cc1cc(C)c(CNC(=O)c2cc(-c3ccc(N4CCN(C(=O)CCCCc5cn(CCOCCOCCOCCOCCOCCNc6cccc7c6C(=O)N(C6CCC(=O)NC6=O)C7=O)nn5)CC4)nc3)cc3c2cnn3C(C)C)c(=O)[nH]1 (configuration not stated)
